Our source for the k2, Ki and IC50 values is ChEMBL document CHEMBL1130605, “Conformationally restricted carbamate inhibitors of horse serum butyrylcholinesterase” (Bioorg Med Chem Lett, 1998).

The structures appear in SMILES notation.

The target in test [1] is Butyrylcholinesterase (Equus caballus) (UniProt Q9N1N9).
The target of test [2] is T1, Butyrylcholinesterase (Equus caballus, UniProt Q9N1N9). The test can be described thus: Tested for kinetic data for the horse serum Butyrylcholinesterase-Catalyzed Hydrolysis of Butyrylthiocholine; 10e-3/M. sec.
Test [3] has as its target T1, Butyrylcholinesterase. The test can be described thus: Compound was evaluated for irreversible inhibition of Horse serum Butyrylcholinesterase.
Test [4] addresses T1, Butyrylcholinesterase. The test can be described thus: Compound was evaluated for its inhibitory concentration against Horse serum Butyrylcholinesterase.

On to `CCCCNC(=O)OC1C[C@H]2CCC1C2` (stereo in doubt; 1) [listing 1 of 2 here], for which the k2 in test [1] was 2.2 10e-3 s-1.
With `CCCCNC(=O)OC1C2CC3CC(C2)CC1C3` (centres undefined), the Ki on Butyrylcholinesterase [2] is 1.8 10e3* M-1 s-1; at Butyrylcholinesterase [3] it was 800 nM. In addition, the k2 in test [1] was 1.4 10e-3 s-1.
On Butyrylcholinesterase [3], `CC[N+](C)(C)c1cccc(O)c1` [EDROPHONIUM BROMIDE] returned a Ki of 340000 nM.
`CNC(=O)Oc1ccc2c(c1)[C@]1(C)CCN(C)[C@@H]1N2C` [PHYSOSTIGMINE] registered an IC50 against Butyrylcholinesterase [4] of 16 nM.
For the compound `CCCCNC(=O)OC1C[C@H]2CCC1C2` (stereo in doubt; 2) [listing 1 of 2 here], the k2 in test [1] is 0.92 10e-3 s-1.
For `CCCCNC(=O)OC1C[C@H]2CCC1C2` (stereo in doubt; 1) [listing 2 of 2 here], the figures for the Ki at Butyrylcholinesterase [2] and at Butyrylcholinesterase [3] were 110 10e3* M-1 s-1 and 20 nM, respectively.
With `CCCCNC(=O)OC1C[C@H]2CCC1C2` (stereo in doubt; 2) [listing 2 of 2 here], the Ki on Butyrylcholinesterase [2] was 2.2 10e3* M-1 s-1; at Butyrylcholinesterase [3], 420 nM.
In the case of `CCCCNC(=O)OC12CC3CC(CC(C3)C1)C2`, the figures for the Ki at Butyrylcholinesterase [2] and on Butyrylcholinesterase [3] were 1.9 10e3* M-1 s-1 and 800 nM, respectively. For the same compound, in test [1], the k2 is 1.5 10e-3 s-1.

A word on the IC50: it is the point on the concentration scale where inhibition reaches its midpoint. A higher IC50 goes with weaker potency in that assay.
